Article PMC8752837, “Structural basis of BAK activation in mitochondrial apoptosis initiation” (Nature Communications, 2022)
pIC50: −log10 of the molar value. Like-named read-outs stand apart in the source and are kept apart here.

What was measured:
GST-BAK = biological target: T1, GST-BAK (Homo sapiens, UniProt Q16611); assay: Competitive fluorescence polarization assay (displacement of BID BH3 SAHB-F); format: binding; details: competitive FP
T1 construct: made in house
T1 sequence (Q16611 1-211): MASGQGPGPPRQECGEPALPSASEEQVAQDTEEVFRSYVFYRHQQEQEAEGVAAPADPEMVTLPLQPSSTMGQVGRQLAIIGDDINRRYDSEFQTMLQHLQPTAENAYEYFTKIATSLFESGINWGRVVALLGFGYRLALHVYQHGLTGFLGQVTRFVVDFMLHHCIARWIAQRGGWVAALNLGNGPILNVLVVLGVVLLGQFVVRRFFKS
Source text: We also tested the monosubstituted peptides in competitive fluorescence polarization (FP) binding assays, which measure displacement from GST-BAK of BID BH3 stabilized alpha helix of BCL-2 proteins (SAHB) C-terminally tagged with fluorescein and thus informs on peptide binding affinity.
We carried out fluorescence polarization assays, measuring the displacement of the fluorescent peptide BID BH3 SAHB-F from GST-BAK, in 384-well Greiner black polystyrene plates with flat bottom (Sigma-Aldrich). Master mix consisted of 50 mM Tris-HCl pH 7.5, 50 mM KCl, 0.1 mg/mL BSA, 2 mM DTT, 0.005% Tween-20, 10 nM BID BH3 SAHB-F, and 1 µM GST-BAK. We pin transferred peptides using Biomek FX (Beckman Coulter Life Sciences, IN) to achieve final concentration of 500−0.2 µM in 20 µL final volume. We gently centrifuged plates to remove air bubbles for 1 min at 1000 rpm, and incubated them for 60 min at RT. […] Free peptide controls in each plate consisted of only BID BH3 SAHB-F and bound peptide controls containing BID BH3 SAHB-F + GST-BAK. We derived Z’-values using the equation [1 − 3(stdev^L + stdev^H)]/(average^H − average^L), where L is the free peptide control and H is the bound peptide control. […] We processed and visualized data using the software Robust Investigation of Screening Experiments (RISE) developed in house in the Pipeline Pilot platform (Accelrys, v.8.5.0). We performed at least three independent dose-response experiments for each peptide. We estimated IC50 values in RISE and GraphPad Prism v.8.0a.

WT tevBAK = biological target: T2, WT tevBAK (Homo sapiens, UniProt Q16611); assay: Isothermal titration calorimetry; format: binding; details: 25 °C; single site binding model
T2 construct: To generate tevBAK (residues 22–186), we cleaved off the histidine tag with TEV protease; His tag (vector pNIC28-Bsa4) (N, cleaved yes); made in house; host or cells: E. coli T7 Express pLac I/Y
T2 sequence (Q16611 22-186): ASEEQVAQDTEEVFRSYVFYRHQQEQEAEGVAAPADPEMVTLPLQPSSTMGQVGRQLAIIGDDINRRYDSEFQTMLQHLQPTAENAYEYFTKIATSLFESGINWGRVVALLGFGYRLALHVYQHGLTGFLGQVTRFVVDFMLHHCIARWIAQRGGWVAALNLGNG
Experimental: Protein samples were exchanged into 20 mM HEPES, 100 mM NaCl and 1 mM TCEP prior to the experiment. Titrations were performed by first injecting 0.5 μl of 250 or 500 µM BID BH3 peptides into a solution of 20 or 50 µM BAK followed by additional 2 μl injections. […] Results were analyzed using Origin software (OriginLab) provided by MicroCal. Binding constants (KD) and thermodynamic parameters were calculated from the average of two or three individual titrations by fitting the data to a single site binding model using a nonlinear least-squares fitting algorithm.

Human BAK-∆TM-His6 (BAK) = biological target: T3, Human BAK-∆TM-His6 (BAK) (Homo sapiens, UniProt Q16611); details: ref Moldoveanu et al NSMB (2013) 20:589; cited from earlier work
T3 construct: C-terminus truncated recombinant human BAK containing C-terminal 6× histidine tag (MEAS-BAK); made in house; host or cells: E. coli T7 Express pLac I/Y
T3 sequence (Q16611 1-186 limits assumed): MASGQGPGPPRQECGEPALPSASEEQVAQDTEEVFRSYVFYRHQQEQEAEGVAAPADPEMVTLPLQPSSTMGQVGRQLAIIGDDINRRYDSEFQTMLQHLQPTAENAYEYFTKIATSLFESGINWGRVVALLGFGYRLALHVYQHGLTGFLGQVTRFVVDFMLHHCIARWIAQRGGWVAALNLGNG
Source text: page 33: helix 1 to be important, and the idea that this could be achieved through somewhat different molecular interactions is neither surprising nor novel. We appreciate the reviewer’s viewpoint but respectfully disagree. We clarify the distinction between W(3)W(5) BID BH3 and BIM-h3Pc-RT inactivated complexes by explaining that stabilization of helix 1 is through indirect contacts in the former (allosteric) and through direct contact in the latter “glue-like” complex. This distinction is now discussed in the highlighted region on pg. 16 being key for the design of small molecule BH3 mimetic ...

CC[C@H](C)[C@H](NC(=O)[C@H](CO)NC(=O)[C@H](CCCNC(=N)N)NC(=O)[C@H](CC(=O)O)NC(=O)[C@H](CCSC)NC(=O)[C@H](CO)NC(=O)[C@H](CC(=O)O)NC(=O)CNC(=O)[C@@H](NC(=O)[C@H](CCC(N)=O)NC(=O)[C@H](C)NC(=O)[C@H](CC(C)C)NC(=O)[C@H](Cc1c[nH]cn1)NC(=O)[C@H](CCCNC(=N)N)NC(=O)[C@H](C)NC(=O)[C@@H](NC(=O)[C@H](CC(N)=O)NC(=O)[C@H](CCCNC(=N)N)NC(=O)[C@@H](NC(=O)[C@@H](NC(=O)[C@H](CC(=O)O)NC(=O)[C@H](CCC(=O)O)NC(C)=O)[C@@H](C)CC)[C@@H](C)CC)[C@@H](C)CC)C(C)C)C(N)=O [WT BID BH3, reference compound]
IC50 (GST-BAK; Experiment-1): 12.73 µM | IC50 (GST-BAK; Experiment-2): 6.926 µM | IC50 (GST-BAK; Experiment-3): 15.45 µM | IC50 (GST-BAK; Experiment-4): 8.804 µM | IC50 (GST-BAK; Experiment-5): 11 µM | IC50 (GST-BAK; Experiment-6): 9.271 µM | IC50 (GST-BAK; Experiment-7): 11.57 µM | IC50 (GST-BAK; Experiment-9): 22.17 µM | pIC50 (GST-BAK; mean of the experiments (replicated 4-9 times), read-out: IC50 Mean): 4.91 | ITC -T∆S (WT tevBAK): 0.41 ± 0.11 kcal/mol | ITC ∆G (WT tevBAK): -6.34 ± 0.04 kcal/mol | ITC ∆H (WT tevBAK): -6.75 ± 0.07 kcal/mol | fold less potent than activated full-length BID (N/C BID) (Human BAK-∆TM-His6 (BAK)): ~ 100 x
